Read-outs that look alike come from different tables or passages of the source.
Key:
[1] = tested on: TTR tetramer (recombinant human transthyretin WT, T119M, V30M); type: binding; conditions: probe solution 0.3 μM immobilized on solid phase; recombinant TTR 100 ng/mL; FIG. 16A-B
[2] = molecular target: T1, TTR tetramer (recombinant human transthyretin WT, T119M, V30M) (Homo sapiens, UniProt P02766, V50M); type: binding; conditions: probe solution 0.3 μM immobilized; FIG. 16A
T1 construct: purchased AlexoTech T-500-10 (WT); T-515-10 (T119M); T-505-10 (V30M)

[3] = molecular target: T2, TTR tetramer (recombinant human transthyretin WT, T119M, V30M) (Homo sapiens, UniProt P02766, T139M); type: binding; conditions: probe solution 0.3 μM immobilized; FIG. 16A
T2 construct: purchased AlexoTech T-500-10 (WT); T-515-10 (T119M); T-505-10 (V30M)

[4] = tested on: TTR tetramer (recombinant human transthyretin WT, T119M, V30M); type: binding; conditions: probe solution 0.2 μM mixed with sample; FIG. 18A-B
[5] = molecular target: T1, TTR tetramer (recombinant human transthyretin WT, T119M, V30M); type: binding; conditions: probe solution 0.2 μM; FIG. 18A
[6] = molecular target: T2, TTR tetramer (recombinant human transthyretin WT, T119M, V30M); type: binding; conditions: probe solution 0.2 μM; FIG. 18A
[7] = tested on: TTR tetramer (recombinant human transthyretin WT, T119M, V30M); type: binding; conditions: probe solution 10 μM; recombinant TTR 100 ng/mL; FIG. 14A-D
[8] = molecular target: T1, TTR tetramer (recombinant human transthyretin WT, T119M, V30M); type: binding; conditions: probe solution 10 μM; recombinant TTR 100 ng/mL; FIG. 14A
[9] = molecular target: T2, TTR tetramer (recombinant human transthyretin WT, T119M, V30M); type: binding; conditions: probe solution 10 μM; recombinant TTR 100 ng/mL; FIG. 14A
[10] = Comparative Example 2: 48-hour urea treatment, then sandwich ELISA (TTR 4mer %); type: physicochemical, human; conditions: urea 7.2 M, 25° C., Dunnett's test, FIG. 24A
Procedure: The recombinant TTR of the wild-type (WT), the stabilized variant (Ti19M), and the destabilized variant (V30M) as in Example 1 were used as the recombinant TTR. These recombinant TTRs were diluted with 1% BSA/PBS, to prepare a sample containing 16 µg/mL of each recombinant TTR. Sera obtained from patients with atrial fibrillation (n=26), wild-type ATTR patients (n=18), and ATTR patients with destabilized mutation (A36D) (n=2) were diluted 10 times with 1% BSA/PBS, to prepare various serum samples. A calibrator was prepared in the same manner as in Comparative Example 1.
As the detection antibody and the labeling substance, a biotin-labeled antibody solution and an ALP solution were prepared in the same manner as in Comparative Example 1. An anti-TTR antibody solution was prepared as the capture antibody in the same manner as in Comparative Example 1. […]
Each sample was measured by sandwich ELISA in the same manner as in (3.2) of Comparative Example 1. The calibrator was measured in the same manner. A calibration curve was prepared from the measured values of the calibrators, and the TTR level of each sample was acquired with use of the calibration curve. TTR 4 mer % of the sample after the urea treatment was calculated from the following calculation formula, using the TTR levels of the sample after the urea treatment and the sample without the urea treatment. […]

For `O=C(CCCCC1SCC2NC(=O)NC21)NCCOCCOCCOCCOCCOCCOCCOCCOCCC(=O)Nc1ccc(/C=C/c2cc(Br)c(O)c(Br)c2)cc1` (stereo not shown) [Probe C5, Biotin-PEG8-Stilbene Derivative], the “chemiluminescence signal measured values of WT, T119M and V30M samples versus blank” value [1] was “higher than the signal measured value of the blank”, the “signal measured value of V30M sample relative to WT sample” value [2] was “lower than the signal measured value of WT” and the “signal measured value of T119M sample relative to WT sample” value [3] was “higher than the signal measured value of WT”. For the same compound, the “chemiluminescence signal measured values of WT, T119M and V30M samples versus blank” value [4] was “higher than the signal measured value of the blank”, the “signal measured value of V30M sample relative to WT sample” value [5] was “lower than the signal measured value of WT” and the “signal measured value of T119M sample relative to WT sample” value [6] was “higher than the signal measured value of WT”. For the same compound, the “chemiluminescence signal measured values of WT, T119M and V30M samples versus blank” value [7] was “results similar to those of FIG. 14 A”.

With Biotin-PEG8-Thyroxine [Probe C1] the “chemiluminescence signal measured values of WT, T119M and V30M samples versus blank” value [7] was “higher than the signal measured value of the blank”, the “signal measured value of V30M sample relative to WT sample” value [8] was “lower than the signal measured value of WT” and the “signal measured value of T119M sample relative to WT sample” value [9] was “higher than the signal measured value of WT”.

For biotin-PEG12-thyroxine [Probe C2], the “chemiluminescence signal measured values of WT, T119M and V30M samples versus blank” value [7] was “results similar to those of FIG. 14 A”.

In the case of “transthyretin (T119M) human, recombinant [Probe T119M]”, the “TTR 4mer % relative to the sample containing wild-type TTR” value [10] is reported as “significantly higher”.

With transthyretin (V30M) human [Probe V30M] the “TTR 4mer % relative to the sample containing wild-type TTR” value [10] was “significantly lower”.

— patent US20250369975A1, “METHOD FOR DETECTING TRANSTHYRETIN TETRAMER, AND METHOD FOR EVALUATING STABILITY” (SYSMEX CORPORATION, priority 2024, published 2025)
